Data taken from patent US7732200B2, “Materials and methods for nerve grafting, selection of nerve grafts, and in vitro nerve tissue culture” (University of Florida Research Foundation, Inc., priority 2001, dated 2010).

Tested on: sciatic nerve
Assay: Axonal regeneration into acellular interpositional nerve grafts (GAP-43 profiles)
Assay type: in vivo, rat
From the text: Preparation of acellular nerve grafts treated with chondroitinase: Adult (180-200 g) female SPRAGUE DAWLEY rats (HARLAN, Indianapolis, Ind.) were used as nerve donors and recipient hosts. Donor rats were anesthetized with halothane and decapitated. Sciatic nerves were exposed through a gluteal muscle-splitting incision and isolated free of underlying fascia. A 15-mm nerve segment was excised rostral to the bifurcation into common peroneal and tibial nerves. The segments were rinsed with cold sterile Ringer's solution, stabilized by pinning the ends to a thin plastic support, and transferred to a cryogenic vial. The vials were submerged in liquid nitrogen for 2 minutes and then transferred to a 37° C. water bath for 2 minutes. This freeze/thaw cycle was repeated, yielding acellular nerve grafts that were then stored in liquid nitrogen. On the day before grafting, the nerve grafts were warmed to room temperature and incubated in 100 μl phosphate buffered saline pH 7.4 (PBS) containing 2 units/ml chondroitinase ABC (SIGMA, St. Louis, Mo.) or in PBS (vehicle) only for 16 hours at 37° C. The grafts were rinsed twice with Ringer's and kept on ice prior to use. The chondroitinase ABC preparation was highly purified and stated by the manufacturer to be essentially free of protease activity.
Interpositional nerve grafting for chondroitinase experiments. Twelve rats received bilateral acellular nerve grafts, one chondroitinase-treated and one vehicle-treated graft. Host rats were deeply anesthetized using xylazine (15 mg/kg, i.m.) and ketamine (110 mg/kg, i.p.). The sciatic nerve was exposed and supported by a plastic insert placed between the nerve and underlying tissue. […]
The main grafts were sectioned serially on the transverse plane in recorded measure to assess the extent of axonal growth by microscopy. […] GAP-43-positive axon profiles were scored using IMAGE-PRO PLUS software (MEDIA CYBERNETICS, Silver Springs, Md.).
Immunocytochemistry. Axonal regeneration was assessed by GAP-43 immunofluorescence and digital image analysis. […]

chondroitinase ABC
axonal penetration vs control at 0.3 mm from the host-graft interface (4-day grafts, 3 animals): five-fold greater | average number of axons (GAP-43-immunopositive profiles) entering grafts vs control grafts (8-day grafts, 9 rats with bilateral grafts): more than three-fold greater | propensity of axons to grow within basal laminae (8-day grafts, GAP-43 and laminin double label): unaltered
